# Assay results as given in patent publication US9040523B2, “Antifungal 5,6-dihydro-4H-pyrrolo[1,2-α][1,4]-benzodiazepines and 6H-pyrrolo[1,2-α][1,4]benzodiazepines substituted with benzene derivatives” (JANSSEN PHARMACEUTICA NV, priority 2010, dated 2015).
# Tests used:
# CYP2C9 = CYP2C9 (Homo sapiens, UniProt P11712); experiment: Human liver microsomal cytochrome P450 cocktail inhibition assay, Protocol C; details: human, liver microsomes, pH 7.4, probe tolbutamide (100 microM), 2C9 Tolbut pIC50, human liver microsomes 0.2 mg/ml
# CYP2C9, sequence (P11712 whole entry): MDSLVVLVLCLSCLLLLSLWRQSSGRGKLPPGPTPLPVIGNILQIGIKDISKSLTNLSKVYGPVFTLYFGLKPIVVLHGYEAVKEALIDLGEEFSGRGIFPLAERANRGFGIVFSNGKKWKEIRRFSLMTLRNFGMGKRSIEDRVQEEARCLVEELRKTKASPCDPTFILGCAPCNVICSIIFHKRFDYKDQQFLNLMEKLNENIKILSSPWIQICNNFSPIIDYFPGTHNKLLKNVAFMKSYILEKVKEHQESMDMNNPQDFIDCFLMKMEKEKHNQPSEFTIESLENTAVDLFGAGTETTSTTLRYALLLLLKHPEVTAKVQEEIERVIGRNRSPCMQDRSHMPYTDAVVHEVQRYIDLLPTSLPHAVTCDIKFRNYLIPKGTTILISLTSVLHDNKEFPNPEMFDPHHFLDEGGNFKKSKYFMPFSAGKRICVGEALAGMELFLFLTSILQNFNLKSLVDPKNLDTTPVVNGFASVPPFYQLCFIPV
# Procedure: (§1) Probe substrates and final assay concentrations with the appropriate internal standard are outlined in Table 6a.
# (§2) Assays were performed in 0.1 M phosphate buffer (pH 7.4), containing 0.2 mg/ml human liver microsomes (BD Gentest) and a probe substrate mix consisting of: phenacetin, tolbutamide, S-mephenyloin, dextromethorphan, amodiaquine and midazolam (Table 6a) and a range of test compound concentrations (0 to 30 micromolar) in a total volume of 100 microliters. After a 10 min pre-incubation at 37° C., the reaction was started with addition of NADPH at a final concentration of 1.0 mM. […] The samples are centrifuged for 10 min at 4° C. at 4000 rpm and 60 microliters supernatant is diluted with 180 microliters water. Each sample is injected onto a UPLC/MS system for the simultaneous measurement of the probe substrate metabolites and their associated deuterated internal standards. Percentage inhibition is calculated according to: %-inhibition=(1−Ri/R)*100, whereby Ri and R are the metabolite to internal standard peak area ratios in the presence and absence of inhibitor respectively.
# (§3) Percentage inhibition data are plotted against the Log transformed test compound concentration and after curve fitting the IC50-value is determined.
# Cytochrome P450 2D6 = Cytochrome P450 2D6 (Homo sapiens, UniProt P10635); experiment: as above; details: 2D6_Dextro pIC50, human liver microsomes 0.2 mg/ml; probe dextromethorphan 3 microM
# Cytochrome P450 2D6, sequence (P10635 whole entry): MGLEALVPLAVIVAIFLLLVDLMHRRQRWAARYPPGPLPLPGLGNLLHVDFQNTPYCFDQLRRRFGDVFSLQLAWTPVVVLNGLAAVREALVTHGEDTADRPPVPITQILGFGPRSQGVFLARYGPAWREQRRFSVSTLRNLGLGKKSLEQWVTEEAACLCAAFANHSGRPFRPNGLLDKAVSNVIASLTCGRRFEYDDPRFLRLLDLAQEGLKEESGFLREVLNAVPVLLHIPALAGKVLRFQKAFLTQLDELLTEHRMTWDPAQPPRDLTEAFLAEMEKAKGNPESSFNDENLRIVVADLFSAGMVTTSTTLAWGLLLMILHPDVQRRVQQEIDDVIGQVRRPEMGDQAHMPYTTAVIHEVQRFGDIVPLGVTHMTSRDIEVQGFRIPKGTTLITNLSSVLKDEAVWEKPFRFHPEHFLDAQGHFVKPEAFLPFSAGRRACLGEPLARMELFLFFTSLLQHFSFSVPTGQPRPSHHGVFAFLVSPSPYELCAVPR
# Procedure: as §1, §2, §3
# Cytochrome P450 1A2 = target: T1, Cytochrome P450 1A2 (Homo sapiens, UniProt P05177); experiment: as above; details: for 1A2_Phen pIC50: human liver microsomes 0.2 mg/ml, probe phenacetin 80 microM
# T1 sequence (P05177 1-516): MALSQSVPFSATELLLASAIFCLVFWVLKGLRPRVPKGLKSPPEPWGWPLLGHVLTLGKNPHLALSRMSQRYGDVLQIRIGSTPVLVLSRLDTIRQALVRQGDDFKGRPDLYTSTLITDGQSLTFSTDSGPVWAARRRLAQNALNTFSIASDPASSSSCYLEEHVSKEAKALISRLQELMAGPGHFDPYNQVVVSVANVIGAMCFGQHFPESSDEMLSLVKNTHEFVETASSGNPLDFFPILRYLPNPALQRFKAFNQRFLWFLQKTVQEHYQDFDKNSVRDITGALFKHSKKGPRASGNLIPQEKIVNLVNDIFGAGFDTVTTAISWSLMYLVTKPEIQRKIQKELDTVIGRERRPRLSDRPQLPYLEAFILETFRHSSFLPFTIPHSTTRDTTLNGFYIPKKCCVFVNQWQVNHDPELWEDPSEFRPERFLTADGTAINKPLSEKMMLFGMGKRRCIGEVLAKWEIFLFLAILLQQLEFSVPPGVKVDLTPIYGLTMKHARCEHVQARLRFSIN
# Procedure: as §1, §2, §3
# Cytochrome P450 2C19 = Cytochrome P450 2C19 (Homo sapiens, UniProt P33261); experiment: as above; details: 2C19_S-Meph pIC50, human liver microsomes 0.2 mg/ml; probe S-mephenytoin 30 microM
# Cytochrome P450 2C19, sequence (P33261 whole entry): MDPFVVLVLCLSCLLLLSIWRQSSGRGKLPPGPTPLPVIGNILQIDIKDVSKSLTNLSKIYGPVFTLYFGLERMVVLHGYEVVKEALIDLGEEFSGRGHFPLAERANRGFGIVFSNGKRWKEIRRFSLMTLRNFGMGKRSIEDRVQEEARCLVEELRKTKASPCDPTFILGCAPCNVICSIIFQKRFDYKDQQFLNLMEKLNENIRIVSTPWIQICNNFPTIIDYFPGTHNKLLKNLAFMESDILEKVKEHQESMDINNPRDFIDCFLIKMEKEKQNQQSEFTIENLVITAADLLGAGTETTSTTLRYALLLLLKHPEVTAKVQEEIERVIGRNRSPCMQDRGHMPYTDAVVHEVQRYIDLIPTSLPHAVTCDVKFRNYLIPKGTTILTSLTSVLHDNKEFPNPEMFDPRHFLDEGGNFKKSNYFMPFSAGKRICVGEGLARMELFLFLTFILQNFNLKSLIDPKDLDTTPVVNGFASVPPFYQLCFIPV
# Procedure: as §1, §2, §3
# Cytochrome P450 2C8 = target: T2, Cytochrome P450 2C8 (Homo sapiens, UniProt P10632); experiment: as above; assay type: in vitro ADME; details: human liver microsomes 0.2 mg/ml, probe amodiaquine 2 microM; for IC50: read-out: 2C8_Amod pIC50 (converted)
# T2 construct: tissue BD Gentest; host or cells: human liver microsomes
# T2 sequence (P10632 1-490): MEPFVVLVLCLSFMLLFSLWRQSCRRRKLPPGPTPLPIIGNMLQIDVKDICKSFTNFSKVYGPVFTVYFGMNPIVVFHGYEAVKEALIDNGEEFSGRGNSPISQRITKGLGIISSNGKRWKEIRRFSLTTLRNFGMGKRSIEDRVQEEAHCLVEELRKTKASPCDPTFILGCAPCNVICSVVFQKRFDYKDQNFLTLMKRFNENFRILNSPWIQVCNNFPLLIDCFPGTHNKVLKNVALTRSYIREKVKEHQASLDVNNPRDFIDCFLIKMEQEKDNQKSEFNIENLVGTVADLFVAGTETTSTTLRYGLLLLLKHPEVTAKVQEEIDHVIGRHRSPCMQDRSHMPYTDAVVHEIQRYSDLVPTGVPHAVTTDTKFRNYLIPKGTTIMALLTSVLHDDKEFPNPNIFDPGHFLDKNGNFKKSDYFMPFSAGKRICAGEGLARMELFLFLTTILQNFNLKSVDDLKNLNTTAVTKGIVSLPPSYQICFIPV
# Procedure: as §1, §2, §3
# Cytochrome P450 2C9 = Cytochrome P450 2C9 (Homo sapiens, UniProt P11712); experiment: as above; details: 2C9 Tolbut pIC50, human liver microsomes 0.2 mg/ml; probe tolbutamide 100 microM
# Cytochrome P450 2C9, sequence (P11712 whole entry): as the sequence (P11712 whole entry) above
# Procedure: as §1, §2, §3
# CYP3A4/5 = CYP3A4/5 (Homo sapiens, UniProt P08684); experiment: in vitro; details: liver microsomes, pH 7.4, probe midazolam (2 microM)
# CYP3A4/5, sequence (P08684 2-503): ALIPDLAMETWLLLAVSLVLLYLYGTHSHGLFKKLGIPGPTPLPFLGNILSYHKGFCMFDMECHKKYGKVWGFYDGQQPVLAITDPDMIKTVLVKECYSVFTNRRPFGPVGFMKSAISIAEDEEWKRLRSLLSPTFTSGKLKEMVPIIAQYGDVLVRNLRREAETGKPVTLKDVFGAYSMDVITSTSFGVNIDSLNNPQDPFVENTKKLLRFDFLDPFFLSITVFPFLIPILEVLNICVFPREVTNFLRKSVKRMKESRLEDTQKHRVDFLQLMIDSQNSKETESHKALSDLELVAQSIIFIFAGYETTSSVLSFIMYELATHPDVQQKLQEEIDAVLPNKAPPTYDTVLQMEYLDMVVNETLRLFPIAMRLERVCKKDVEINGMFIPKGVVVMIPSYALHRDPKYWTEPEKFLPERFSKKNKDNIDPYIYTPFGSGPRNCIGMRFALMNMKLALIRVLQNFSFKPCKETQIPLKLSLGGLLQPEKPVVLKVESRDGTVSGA
# Procedure: as §1
# After a 10 min pre-incubation at 37° C., the reaction was started with addition of NADPH at a final concentration of 1.0 mM. […] The samples are centrifuged for 10 min at 4° C. at 4000 rpm and 60 microliters supernatant is diluted with 180 microliters water. Each sample is injected onto a UPLC/MS system for the simultaneous measurement of the probe substrate metabolites and their associated deuterated internal standards.
# as §3
# Rhizopus oryzae IHEM5223 = experiment: Antifungal activity in vitro (resazurin susceptibility screen), Inf. J; assay type: cell-based; details: Rhizopus arrhizus, 37 °C, 24 hours, resa time 6 hours, read-out: Inf. J pIC50 (converted)
# Procedure: (§4) The standard susceptibility screen was performed in 96-well plates (U-bottom, Greiner Bio-One). […] These serial dilutions (10 n1) were then spotted onto test-plates that could be stored in the dark at 4° C. for a maximum period of 2 weeks. […] The different fungal species/isolates (Table 3a) were cryopreserved and 1/1000 diluted in medium just prior to use. A standard inoculum of 200 μl containing 10^3 colony-forming unit (cfu) was then added to each well. A positive control (100% growth=fungal culture without antifungal) and a negative control (0% growth ═RPMI-MOPS medium) were included on each plate. […] [table]
# [1] = Liver metabolic stability assay, hLM; assay type: in vitro ADME, human; details: human liver microsomes, 1 mg protein/ml, 5 μM test compound, 15 min, 37 °C
# [2] = test system: Scedosporium apiospermum IHEM3817; experiment: Antifungal activity in vitro (resazurin susceptibility screen), Inf. H; assay type: cell-based; details: 37 °C, 48 hours, resa time 17 hours, read-out: Inf. H pIC50 (converted)
# Procedure: as §4
# [3] = test system: Trichophyton mentagrophytes B70554; experiment: Antifungal activity in vitro (resazurin susceptibility screen), Inf. G; assay type: cell-based; details: Trichophyton mentagrophytes, B70554, Trichophyton mentagrophytes B70554; 27 °C, 7 days, resa time 24 hours; read-out: Inf. G pIC50 (converted)
# Procedure, shortened: (§5)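 Each well was inoculated with 10^3 cfu of fungus onto dried, pre-spotted compound serial dilutions in RPMI-MOPS medium, with fungal growth read by resazurin. Growth was referenced to drug-free culture (100%) and medium-only (0%) controls on each plate.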
# [4] = Liver metabolic stability assay, gpLM; assay type: in vitro ADME, guinea pig; details: guinea pig microsomes, 1 mg protein/ml, 5 μM test compound, 15 min, 37 °C
# Microsporum canis B68128 = experiment: Antifungal activity in vitro (resazurin susceptibility screen), Inf. B; assay type: cell-based; details: Microsporum canis, B68128, Microsporum canis B68128; 27 °C, 9 days, resa time 24 hours; read-out: Inf. B pIC50 (converted)
# Procedure, shortened: as §5
# [5] = test system: Trichophyton rubrum B68183; experiment: Antifungal activity in vitro (resazurin susceptibility screen), Inf. C; assay type: cell-based; details: Trichophyton rubrum B68183; 27 °C, 7 days, resa time 24 hours; read-out: Inf. C pIC50 (converted)
# Procedure, shortened: (§6)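 Serially diluted compounds were pre-spotted into 96-well U-bottom plates, then each well received 10^3 cfu of cryopreserved fungal inoculum in 200 μl RPMI-MOPS medium. Every plate carried a compound-free growth control (100%) and a medium-only control (0%), with resazurin as read-out.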
# [6] = test system: Scedosporium prolificans IHEM21157; experiment: Antifungal activity in vitro (resazurin susceptibility screen), Inf. I; assay type: cell-based; details: Lomentospora prolificans, 37 °C, 48 hours, resa time 17 hours, read-out: Inf. I pIC50 (converted)
# Procedure: as §4
# [7] = test system: Rhizomucor miehei IHEM13391; experiment: Antifungal activity in vitro (resazurin susceptibility screen), Inf. K; assay type: cell-based; details: 37 °C, 48 hours, resa time 17 hours, read-out: Inf. K pIC50 (converted)
# Procedure: as §4
# [8] = test system: Sporothrix schenkii B62482; experiment: Antifungal activity in vitro (resazurin susceptibility screen), Inf. A; assay type: cell-based; details: Sporothrix, B62482, Sporothrix schenkii B62482; 27 °C, 4 days, resa time 24 hours; highest in-test concentration 64 μM; read-out: Inf. A pIC50 (converted)
# Procedure, shortened: as §6
# [9] = Liver metabolic stability assay, mLM; assay type: in vitro ADME; details: mouse liver microsomes, 1 mg protein/ml, 5 μM test compound, 15 min, 37 °C
# Procedure: Liver preparations (microsomal fractions) were obtained from BD Gentest (San Jose, Calif., US). Metabolic stability was assessed using the following assay conditions. […] The mixture was pre-incubated at 37° C. for 5 min and the enzymatic reaction was started by addition of 5 μM test compound. After 0 (control) and 15 minutes (min), the reactions were terminated by addition of […] (500 μl). The precipitated material was removed by centrifugation at 1200 g for 10 min. The supernatant was analysed by LC-MS/MS on a ThermoFinnigan LCQ Deca XP ion-trap mass spectrometer equipped with an atmospheric pressure chemical ionisation source. Calculation of %-compound remaining was as described by Kantharaj et al. 2003 ((Kantharaj E., Tuytelaars A, Proost P E A, Ongel Z, van […] (2003). Simultaneous measurement of drug metabolic stability and identification of metabolites using ion-trap mass spectrometry.
# [10] = test system: Candida parapsilosis B66126; experiment: Antifungal activity in vitro (resazurin susceptibility screen), Inf. D; assay type: cell-based; details: Lodderomyces parapsilosis; Candida parapsilosis B66126; 37 °C, 24 hours, resa time 4 hours; read-out: Inf. D pIC50 (converted)
# Procedure, shortened: as §5
# [11] = test system: Aspergillus fumigatus B42928; experiment: Antifungal activity in vitro (resazurin susceptibility screen), Inf. E; assay type: cell-based; details: Aspergillus fumigatus B42928; 27 °C, 48 hours, resa time 17 hours; read-out: Inf. E pIC50 (converted)
# Procedure, shortened: as §6
# [12] = test system: Cryptococcus neoformans B66663; experiment: Antifungal activity in vitro (resazurin susceptibility screen), Inf. F; assay type: cell-based; details: Cryptococcus neoformans, B66663, Cryptococcus neoformans B66663; 37 °C, 24 hours, resa time 4 hours; read-out: Inf. F pIC50 (converted)
# Procedure, shortened: as §6
# [13] = test system: Mucor circinelloides IHEM21105; experiment: Antifungal activity in vitro (resazurin susceptibility screen), Inf. L; assay type: cell-based; details: 27 °C, 48 hours, resa time 17 hours, read-out: Inf. L pIC50 (converted)
# Procedure: as §4
SMILES,IC50 at 10 min (CYP2C9),IC50 (Cytochrome P450 2D6),IC50 (Cytochrome P450 1A2),IC50 (Cytochrome P450 2C19),IC50 (Cytochrome P450 2C8),IC50 (Cytochrome P450 2C9),1A2_Phen pIC50 (Cytochrome P450 1A2),IC50 at 10 min (CYP3A4/5),IC50 (Rhizopus oryzae IHEM5223),%-compound metabolised_Met_hLM [1],IC50 [2],IC50 [3],%-compound metabolised Met_gpLM [4],IC50 (Microsporum canis B68128),IC50 [5],IC50 [6],melting point,IC50 [7],IC50 [8],%-compound metabolised Met_mLM [9],further results
CCc1ccc(C2NCc3c(Cl)cccc3-n3cccc32)cc1 (centres unmarked),10 µM,3.16 µM,> 10 µM,1 µM,> 10 µM,–,–,–,–,–,–,–,–,–,–,–,–,–,–,–,–
Br.CCc1ccc(C2NCc3c(Cl)cccc3-n3cccc32)cc1 (centres unmarked),–,2 µM,–,0.794 µM,–,7.94 µM,<5.0,> 10 µM,–,–,–,–,–,–,–,–,–,–,–,–,2C8_Amod pIC50 (Cytochrome P450 2C8): <5.0
CCc1ccc(C2NCc3ccc(Cl)cc3-n3cccc32)cc1 (centres unmarked),10 µM,3.98 µM,> 10 µM,0.316 µM,> 10 µM,–,–,6.31 µM,–,–,–,–,–,–,–,–,–,–,–,–,–
"CC(=O)c1ccc(C2=NCc3c(Cl)cccc3-n3cccc32)cc1 [Compound 17, 1-[4-(7-chloro-6H-pyrrolo[1,2-a][1,4]benzodiazepin-4-yl)phenyl]-ethanone]",–,–,–,–,–,–,–,–,> 63.1 µM,50%,> 63.1 µM,0.251 µM,84%,0.2 µM,0.0398 µM,> 63.1 µM,252.3 to 252.6 °C,> 63.1 µM,> 31.6 µM,70%,IC50 [10]: > 31.6 µM; IC50 [11]: > 31.6 µM; IC50 [12]: > 31.6 µM
"CS(=O)(=O)c1ccc(C2=NCc3c(Cl)cccc3-n3cccc32)cc1 [Compound 28, 7-chloro-4-[4-(methylsulfonyl)phenyl]-6H-pyrrolo[1,2-a][1,4]benzodiazepine]",–,–,–,–,–,–,–,–,> 63.1 µM,2%,> 63.1 µM,2.51 µM,21%,1.26 µM,2 µM,7.94 µM,218.5 to 219.9 °C,> 63.1 µM,> 63.1 µM,41%,IC50 [10]: > 63.1 µM; IC50 [13]: > 63.1 µM; IC50 [11]: > 63.1 µM; IC50 [12]: > 63.1 µM
Br.CC(=O)c1ccc(C2NCc3c(Cl)cccc3-n3cccc32)cc1 (centres unmarked) [drawing 96],–,2 µM,–,1.26 µM,–,2.51 µM,<5.0,5.01 µM,–,–,–,–,–,–,–,–,–,–,–,–,–
